Earlier results as cited in patent publication US20170224936A1, “Nasal treatment delivery device with carbon dioxide and saline, and methods” (priority 2016, published 2017).

Columns and labels:
[1] = carbon dioxide gas treatments per Capnia prior art to Rasor et al

severe stinging [1]: had occurred
sensation during exposure (during exposure to CO(2)): transient burning sensation
Structure (SMILES): O=C=O [CO(2), carbon dioxide]
sneezes (20-second exposure, compared with no treatment, p=0.05): significant reduction
histamine levels in ipsilateral nasal secretions (after pretreatment with CO(2)): did not increase
ipsilateral secretion weights (compared with no treatment): numerically reduced
bilateral runny nose symptoms (compared with no treatment, p=0.01): significant reduction
contralateral secretion weights (compared with no treatment, p=0.04): significant reduction
